Test results published in patent publication US10961222B2, “Chemical compound of isocitrate dehydrogenase inhibitor, and application thereof” (NANJING SANHOME PHARMACEUTICAL CO., LTD., priority 2016, dated 2021).

Assays:
[1] = target: T1, U87-MG cell line of overexpressed mutant IDH2 (R140Q) (Homo sapiens, UniProt P48735, R140Q); experiment: Cell activity in vitro: 2-HG in culture supernatant of U87-MG (IDH2-R140Q) cells by LC-MS/MS; format: cell-based; details: U87-MG (IDH2-R140Q) cells, 72 hours, 2-HG in supernatant; read-out: IC50 (2-HG remaining compared to untreated)
T1 construct: expressed in transfected cells
T1 sequence (P48735 40-452 R140Q): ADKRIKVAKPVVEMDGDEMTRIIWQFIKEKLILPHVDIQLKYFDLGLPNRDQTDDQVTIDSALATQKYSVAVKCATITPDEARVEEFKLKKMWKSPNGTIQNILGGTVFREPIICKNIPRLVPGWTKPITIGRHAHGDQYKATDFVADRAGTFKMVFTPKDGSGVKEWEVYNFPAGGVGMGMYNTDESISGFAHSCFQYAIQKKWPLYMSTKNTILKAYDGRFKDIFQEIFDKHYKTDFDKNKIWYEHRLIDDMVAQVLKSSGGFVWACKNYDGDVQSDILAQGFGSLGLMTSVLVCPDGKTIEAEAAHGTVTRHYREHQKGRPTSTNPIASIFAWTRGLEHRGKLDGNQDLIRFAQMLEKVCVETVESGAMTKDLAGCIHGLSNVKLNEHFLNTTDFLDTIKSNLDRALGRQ
Description: 1.2 Cells: human glioblastoma cell line U87-MG, purchased from the American Type Culture Collection (ATCC);
Cell recovery: U87-MG (IDH2-R140Q) cells and U87-MG cells were put into a 37° C. water bath, then transferred to 15 mL of pre-warmed medium, centrifuged at 1000 rpm for 5 minutes, and the medium was discarded. The cells were resuspended in 15 mL of fresh medium, transferred to a T75 flask and cultured in a 37° C. incubator with 5% CO2. After 24 hours, the medium was changed to fresh medium.
Cell passage: The above-mentioned recovered cells were transferred to a 50 mL sterile centrifuge tube, centrifuged at 1000 rpm for 5 minutes, and the medium was discarded. The cells were resuspended evenly and counted. The cell density was adjusted appropriately in a 15 mL fresh medium, and then added to T75 culture flask. The culture flask was incubated in an incubator with 5% CO2 at 37° C.
After cells grown to a relatively high density in the culture dish, the cells were trypsinized, resuspended in medium (MEM+10% FBS), and counted. After adjusting the cell concentration, the resuspended cells were seeded in a 96-well plate at 5×10^3 cells per well. After inoculation, the cells were cultured for 24 hours until the cells adhered. The medium were sucked out, and the medium containing gradient concentration of compound was added, 100 μL per well. The cells were further cultured for 72 hours. The s 20 μL of upernatant was taken and put into a 2 mL 96-well sample-processing plate. 480 μL of dilution solution was added and shaken for mixing, and then centrifuged at 4500 rpm for 5 minutes. 200 μL of supernatant was transferred for LC-MS/MS injection analysis.
Column: Shim-pack XR-ODS 30L*2.0; mobile phase: acetonitrile-0.2% ammonia, 5 mM ammonium acetate aqueous solution; column temperature: 30° C.; flow rate: 0.4 mL/min; gradient elution conditions are as follows: […]
Atmospheric […] chemical ionization (APCI) was used. Source parameters was set as follows: IonSpray Voltage/IS-4500V; auxiliary gas 1 (Ion Source Gas 1/GS 1, N2), 55Arb; auxiliary gas 2 (Ion Source Gas 2, N2), 55Arb; auxiliary gas heating temperature (Temperature/TEM), 500° C.; curtain gas/CUR, 25Arb; collision gas/CAD, N2, 8 Pa.
Multi-ion reaction monitoring (MRM) in negative ion mode (Negative) was used. […] The internal standard (IS) MRM parameters: parent ion (Q 1 Mass), 178.0 Da; daughter ion (Q3 Mass), 149.0 Da; Decluster Potential (DP), −51V; collision voltage (Collision Energy/CE), −17 eV
By determining the 2-HG content in the cell culture supernatant of each well using LC-MS/MS, the mutant enzyme activity (2-HG remaining compared to untreated %) was calculated. The calculation formula: 2-HG remaining compared to untreated %=(Measured 2-HG level—U87-MG control 2-HG level)/(Untreated 2-HG level—U87-MG control 2-HG level)×100. […] Data were processed by GraphPad Prism v5.0 software and fitted to obtain IC50.

IDH2-R140Q mutant enzyme = target: T2, IDH2-R140Q mutant enzyme (Homo sapiens, UniProt P48735, R140Q); experiment: Inhibitory activity of compounds on IDH2-R140Q enzyme in vitro (diaphorase/resazurin fluorescence); format: biochemical; details: IDH2-R140Q, pre-incubated 16 h with enzyme and NADPH, reaction 1 h with α-ketoglutarate; read-out: R140Q IC50
T2 construct: purchased BPS 71100-1
T2 sequence (P48735 40-452 R140Q): T1 sequence (P48735 40-452 R140Q)
Description: Instrument: SpectraMax M3 Multi-Mode Microplate Reader, purchased from Molecular Devices.
In a 96-well plate, 40 μL of reaction buffer containing 2× enzyme (IDH2-WT or IDH2-R140Q) and cofactor (NADP or NADPH) was added to each well of the compound group and the DMSO control group, and 40 μL of reaction buffer containing 2× cofactor (NADP or NADPH) was added to each well of the enzyme-free control group.
20 μL of reaction buffer containing 4× compound to be tested was added to each well of the compound group. The compound was pre-formulated into 200× mother liquor with 100% DMSO; in the final reaction system, the concentration of DMSO was 0.5%. 20 μL of reaction buffer containing DMSO was added to each well of the DMSO control group; in the final reaction system, the concentration of DMSO was 0.5%.
The compound was mixed well with the enzyme and cofactor, and pre-incubated at room temperature for 16 h;
20 μL of reaction buffer containing 4× reaction substrate was added to each well. After mixed uniformly, the mixture was reacted at room temperature for 1 h.
3× termination and detection solution (it was prepared with reaction buffer, the final concentration of Diaphorase was 0.015 mg/mL, and the final concentration of Resazurin was 0.03 mM) was prepared. 40 μL of 3× termination and detection solution was added to each well of the enzyme reaction system. After mixed uniformly, the mixture was incubated at room temperature for 10 min;
Fluorescence values of two wells were obtained and averaged and the activity rate (Activity %) was calculated. The calculation formula: Activity %=(Measured data−Subtract background)/(DMSO Control−Subtract background)×100, wherein “Measured data” is fluorescence value of the compound in the pre-incubated wells, “Subtract background” is the fluorescence value of the enzyme-free control wells, and “DMSO Control” is the fluorescence value in the DMSO pre-incubated wells. Data was processed by GraphPad Prism v5.0 software and fitted to obtain IC50.

**Q.** How did the IC50 [1] turn out when FC(F)(F)c1cc(Nc2nc(-c3cccc(C(F)(F)F)n3)nc(N3CCOCC3)n2)ccn1 [Example 4, 4-Morpholinyl-6-(6-(trifluoromethyl)pyridin-2-yl)-N-(2-(trifluoromethyl)pyridin-4-yl)-1,3,5-triazin-2-amine] was run?
**A.** 21 nM

**Q.** And the IC50 (IDH2-R140Q mutant enzyme)?
**A.** 15 nM

**Q.** Which IC50 (IDH2-R140Q mutant enzyme) does the source give for FC1(F)CC=C(c2nc(Nc3ccnc(C(F)(F)F)c3)nc(-c3cccc(C(F)(F)F)n3)n2)CC1 [Example 25, 4-(4,4-Difluorocyclohexyl-1-en-1-yl)-6-(6-(trifluoromethyl)pyridin-2-yl)-N-(2-(trifluoromethyl)pyridin-4-yl)-1,3,5-triazin-2-amine] here?
**A.** 15 nM

**Q.** How did the IC50 (IDH2-R140Q mutant enzyme) turn out when FC1(F)CCC(c2nc(Nc3ccnc(C(F)(F)F)c3)nc(-c3cccc(C(F)(F)F)n3)n2)CC1 [Example 26, 4-(4,4-Difluorocyclohexyl)-6-(6-(trifluoromethyl)pyridin-2-yl)-N-(2-(trifluoromethyl)pyridin-4-yl)-1,3,5-triazin-2-amine] was run?
**A.** 21 nM

**Q.** Which results are given for CC(C)ONc1nc(Nc2ccnc(C(F)(F)F)c2)nc(-c2cccc(C(F)(F)F)n2)n1 [Example 27]?
**A.** IC50 [1]: 31.2 nM; IC50 (IDH2-R140Q mutant enzyme): 12.5 nM

**Q.** Which IC50 [1] does the source give for CC(C)(C)ONc1nc(Nc2ccnc(C(F)(F)F)c2)nc(-c2cccc(C(F)(F)F)n2)n1 [Example 28, 4-(Tert-Butoxyamino)-6-(6-(trifluoromethyl)pyridin-2-yl)-N-(2-(trifluoromethyl)pyridin-4-yl)-1,3,5-triazin-2-amine] here?
**A.** 25.1 nM

**Q.** And the IC50 (IDH2-R140Q mutant enzyme)?
**A.** 12.2 nM

**Q.** Which IC50 [1] does the source give for CN(C)Nc1nc(Nc2ccnc(C(F)(F)F)c2)nc(-c2cccc(C(F)(F)F)n2)n1 [Example 29] here?
**A.** 17.1 nM

**Q.** What about the IC50 (IDH2-R140Q mutant enzyme) of the same compound?
**A.** 5.8 nM

**Q.** Which results are given for CCN(CC(C)(C)O)c1nc(Nc2ccnc(C(F)(F)F)c2)nc(-c2cccc(C(F)(F)F)n2)n1 [Example 31, 1-(Ethyl(4-(6-(trifluoromethyl)pyridin-2-yl)-6-((2-(trifluoromethyl)pyridin-4-yl)amino)-1,3,5-triazin-2-yl)amino)-2-methylpropan-2-ol]?
**A.** IC50 [1]: 38.1 nM; IC50 (IDH2-R140Q mutant enzyme): 21.3 nM

**Q.** How did the IC50 [1] turn out when OC1CN(c2nc(Nc3ccnc(C(F)(F)F)c3)nc(-c3cccc(C(F)(F)F)n3)n2)C1 [Example 32] was run?
**A.** 36.1 nM

**Q.** And the IC50 (IDH2-R140Q mutant enzyme)?
**A.** 26.5 nM

**Q.** CC1(O)CN(c2nc(Nc3ccnc(C(F)(F)F)c3)nc(-c3cccc(C(F)(F)F)n3)n2)C1 [Example 33] was tested. Which IC50 [1] did it give?
**A.** 10.2 nM

**Q.** What about the IC50 (IDH2-R140Q mutant enzyme) of the same compound?
**A.** 29.2 nM

**Q.** With FC1(F)CN(c2nc(Nc3ccnc(C(F)(F)F)c3)nc(-c3cccc(C(F)(F)F)n3)n2)C1 [Example 35, 4-(3,3-Difluoroazetidin-1-yl)-6-(6-(trifluoromethyl)pyridin-2-yl)-N-(2-(trifluoromethyl)pyridin-4-yl)-1,3,5-triazin-2-amine] as the compound, how does the IC50 [1] read?
**A.** 9.8 nM

**Q.** What about the IC50 (IDH2-R140Q mutant enzyme) of the same compound?
**A.** 8.3 nM

**Q.** How did the IC50 [1] turn out when OC1(C(F)(F)F)CCN(c2nc(Nc3ccnc(C(F)(F)F)c3)nc(-c3cccc(C(F)(F)F)n3)n2)CC1 [Example 38, 4-(Trifluoromethyl)-1-(4-(6-(trifluoromethyl)pyridin-2-yl)-6-((2-(trifluoromethyl)pyridin-4-yl)amino)-1,3,5-triazin-2-yl)piperidin-4-ol] was run?
**A.** 59.1 nM

**Q.** And the IC50 (IDH2-R140Q mutant enzyme)?
**A.** 25.2 nM

**Q.** For CC(C)(O)/C=C/c1nc(Nc2ccnc(C(F)(F)F)c2)nc(-c2cccc(C(F)(F)F)n2)n1 [Example 40, 2-Methyl-4-(4-(6-(trifluoromethyl)pyridin-2-yl)-6-((2-(trifluoromethyl)pyridin-4-yl)amino)-1,3,5-triazin-2-yl)-3-buten-2-ol], which IC50 [1] is on record?
**A.** 33.1 nM

**Q.** What does the source list for CC(C)(O)CCc1nc(Nc2ccnc(C(F)(F)F)c2)nc(-c2cccc(C(F)(F)F)n2)n1 [Example 41, 2-Methyl-4-(4-(6-(trifluoromethyl)pyridin-2-yl)-6-((2-(trifluoromethyl)pyridin-4-yl)amino)-1,3,5-triazin-2-yl)-3-butan-2-ol]?
**A.** IC50 [1]: 10.1 nM; IC50 (IDH2-R140Q mutant enzyme): 16.1 nM

**Q.** Which results are given for CC(C)Oc1nc(Nc2ccnc(C(F)(F)F)c2)nc(-c2cccc(C(F)(F)F)n2)n1 [Example 42, 4-Isopropoxy-6-(6-(trifluoromethyl)pyridin-2-yl)-N-(2-(trifluoromethyl)pyridin-4-yl)-1,3,5-triazin-2-amine]?
**A.** IC50 [1]: 8.1 nM; IC50 (IDH2-R140Q mutant enzyme): 5.1 nM

**Q.** Which IC50 [1] does the source give for FC(F)(F)COc1nc(Nc2ccnc(C(F)(F)F)c2)nc(-c2cccc(C(F)(F)F)n2)n1 [Example 43, 4-(2,2,2-Trifluoroethoxy)-6-(6-(trifluoromethyl)pyridin-2-yl)-N-(2-(trifluoromethyl)pyridin-4-yl)-1,3,5-triazin-2-amine] here?
**A.** 9.6 nM

**Q.** And the IC50 (IDH2-R140Q mutant enzyme)?
**A.** 5.8 nM

**Q.** How did the IC50 [1] turn out when CC(Oc1nc(Nc2ccnc(C(F)(F)F)c2)nc(-c2cccc(C(F)(F)F)n2)n1)C(F)(F)F (centres unmarked) [Example 44, 4-(6-(Trifluoromethyl)pyridin-2-yl)-N-(2-(trifluoromethyl)pyridin-4-yl)-6-((1,1,1-trifluoroisopropyl-2-yl)oxy)-1,3,5-triazin-2-amine] was run?
**A.** 5.1 nM

**Q.** And the IC50 (IDH2-R140Q mutant enzyme)?
**A.** 8.8 nM

**Q.** Which IC50 (IDH2-R140Q mutant enzyme) does the source give for CC(C)(O)C1CN(c2nc(Nc3ccnc(C(F)(F)F)c3)nc(-c3cccc(C(F)(F)F)n3)n2)C1 [Example 48, 4-(3-(2-propyl-2-ol)azetidin-1-yl)-6-(6-(trifluoromethyl)pyridin-2-yl)-N-(2-(trifluoromethyl)pyridin-4-yl)-1,3,5-triazin-2-amine] here?
**A.** 19 nM

**Q.** FC(F)(F)c1cc(Nc2nc(-c3cccc(C(F)(F)F)n3)nc(N3CCCCC3)n2)ccn1 [Example 50, 4-(piperidin-1-yl)-6-(6-(trifluoromethyl)pyridin-2-yl)-N-(2-(trifluoromethyl)pyridin-4-yl)-1,3,5-triazin-2-amine] was tested. Which IC50 (IDH2-R140Q mutant enzyme) did it give?
**A.** 22 nM

**Q.** Which IC50 (IDH2-R140Q mutant enzyme) does the source give for N#C[C@@H]1CCN(c2nc(Nc3ccnc(C(F)(F)F)c3)nc(-c3cccc(C(F)(F)F)n3)n2)C1 [Example 52, 4-((R)-3-cyanopyrrolidin-1-yl)-6-(6-(trifluoromethyl)pyridin-2-yl)-N-(2-(trifluoromethyl)pyridin-4-yl)-1,3,5-triazin-2-amine] here?
**A.** 23 nM
